Experimental data published in ChEMBL document CHEMBL5620394, “Synthesis of new antiproliferative 1,3,4-substituted-pyrrolo[3,2-c]quinoline derivatives, biological and in silico insights” (Eur J Med Chem, 2023).
The source made the active and inactive calls. No cut-off for these calls is given here.

How the values were obtained:
UO-31 = test: Antiproliferative activity against human UO-31 cells assessed as cell growth at 10 uM incubated for 48 hrs by sulforhodamine B assay relative to control; type: functional; details: read-out: Activity
NCI-H522 = test: Antiproliferative activity against human NCI-H522 cells assessed as cell growth at 10 uM incubated for 48 hrs by sulforhodamine B assay relative to control; type: functional; details: read-out: Activity
HeLa [1] = test: Antiproliferative activity against human HeLa cells assessed as inhibition of cell growth at >50 uM incubated for 4 hrs by MTS assay; type: functional, cell-based
MOLT-4 = test: Antiproliferative activity against human MOLT-4 cells assessed as cell growth at 10 uM incubated for 48 hrs by sulforhodamine B assay relative to control; type: functional; details: read-out: Activity
MCF7 [2] = test: Antiproliferative activity against human MCF7 cells assessed as cell growth at 10 uM incubated for 48 hrs by sulforhodamine B assay relative to control; type: functional; details: read-out: Activity
MCF7 [3] = test: Antiproliferative activity against human MCF7 cells assessed as inhibition of cell growth incubated for 4 hrs by MTS assay; type: functional
CAKI-1 = test: Antiproliferative activity against human CAKI-1 cells assessed as cell growth at 10 uM incubated for 48 hrs by sulforhodamine B assay relative to control; type: functional; details: read-out: Activity
UACC-62 = test: Antiproliferative activity against human UACC-62 cells assessed as cell growth at 10 uM incubated for 48 hrs by sulforhodamine B assay relative to control; type: functional; details: read-out: Activity
HT-29 = test: Antiproliferative activity against human HT-29 cells assessed as cell growth at 10 uM incubated for 48 hrs by sulforhodamine B assay relative to control; type: functional; details: read-out: Activity
RPMI-8226 = test: Antiproliferative activity against human RPMI-8226 cells assessed as cell growth at 10 uM incubated for 48 hrs by sulforhodamine B assay relative to control; type: functional; details: read-out: Activity
CCRF-CEM = test: Antiproliferative activity against human CCRF-CEM cells assessed as cell growth at 10 uM incubated for 48 hrs by sulforhodamine B assay relative to control; type: functional; details: read-out: Activity
[4] = Antiproliferative activity against human 16HBE14o- cells assessed as inhibition of cell growth incubated for 4 hrs by MTS assay; type: toxicity, cell-based; details: read-out: IG50
K562 = test: Antiproliferative activity against human K562 cells assessed as cell growth at 10 uM incubated for 48 hrs by sulforhodamine B assay relative to control; type: functional; details: read-out: Activity
786-0 = test: Antiproliferative activity against human 786-0 cells assessed as cell growth at 10 uM incubated for 48 hrs by sulforhodamine B assay relative to control; type: functional; details: read-out: Activity
HeLa [5] = test: Antiproliferative activity against human HeLa cells assessed as inhibition of cell growth incubated for 4 hrs by MTS assay; type: functional
SNB-75 = test: Antiproliferative activity against human SNB-75 cells assessed as cell growth at 10 uM incubated for 48 hrs by sulforhodamine B assay relative to control; type: functional; details: read-out: Activity
NCI-H226 = test: Antiproliferative activity against human NCI-H226 cells assessed as cell growth at 10 uM incubated for 48 hrs by sulforhodamine B assay relative to control; type: functional; details: read-out: Activity
[6] = Antiproliferative activity against human LA-N-5 cells assessed as inhibition of cell growth incubated for 4 hrs by MTS assay; type: functional
T47D = test: Antiproliferative activity against human T47D cells assessed as cell growth at 10 uM incubated for 48 hrs by sulforhodamine B assay relative to control; type: functional; details: read-out: Activity
MDA-MB-231 = test: Antiproliferative activity against human MDA-MB-231 cells assessed as cell growth at 10 uM incubated for 48 hrs by sulforhodamine B assay relative to control; type: functional; details: read-out: Activity
UACC-257 = test: Antiproliferative activity against human UACC-257 cells assessed as cell growth at 10 uM incubated for 48 hrs by sulforhodamine B assay relative to control; type: functional; details: read-out: Activity
HL-60 = test: Antiproliferative activity against human HL-60 cells assessed as cell growth at 10 uM incubated for 48 hrs by sulforhodamine B assay relative to control; type: functional; details: read-out: Activity
MCF7 [7] = test: Antiproliferative activity against human MCF7 cells assessed as inhibition of cell growth at >50 uM incubated for 4 hrs by MTS assay; type: functional, cell-based
PC-3 = test: Antiproliferative activity against human PC-3 cells assessed as cell growth at 10 uM incubated for 48 hrs by sulforhodamine B assay relative to control; type: functional; details: read-out: Activity
LA-N-5 [8] = test: Antiproliferative activity against human LA-N-5 cells assessed as reduction in cell growth at 10 to 100 uM incubated for 4 hrs by MTS assay; type: functional, cell-based; details: dose 10-100 µM
NCI-H292 = test: Antiproliferative activity against human NCI-H292 cells assessed as inhibition of cell growth at >50 uM incubated for 4 hrs by MTS assay; type: functional, cell-based
SR = test: Antiproliferative activity against human SR cells assessed as cell growth at 10 uM incubated for 48 hrs by sulforhodamine B assay relative to control; type: functional; details: read-out: Activity
LA-N-5 [9] = test: Antiproliferative activity against human LA-N-5 cells assessed as inhibition of cell growth at 10 uM incubated for 4 hrs by MTS assay; type: functional, cell-based

## CCn1c(C)c(C(C)=O)c2c(-c3ccccc3)nc3ccccc3c21
UO-31
  growth at 10 µM: 82.5%
NCI-H522
  growth at 10 µM: 92.6%
HeLa [1]
  Activity: Active
MOLT-4
  growth at 10 µM: 95.2%
MCF7 [2]
  growth at 10 µM: 93.6%
MCF7 [3]
  IG50: 10 µM
CAKI-1
  growth at 10 µM: 93.8%
UACC-62
  growth at 10 µM: 88.9%
HT-29
  growth at 10 µM: 108%
RPMI-8226
  growth at 10 µM: 79.6%
CCRF-CEM
  growth at 10 µM: 88.5%
[4]
  GI50 at 4 h: 10 µM
K562
  growth at 10 µM: 99.2%
786-0
  growth at 10 µM: 98.8%
HeLa [5]
  IG50: 10 µM
SNB-75
  growth at 10 µM: 85.1%
NCI-H226
  growth at 10 µM: 68.3%
[6]
  IG50: 1 µM
T47D
  growth at 10 µM: 87%
MDA-MB-231
  growth at 10 µM: 91.1%
UACC-257
  growth at 10 µM: 93.3%
HL-60
  growth at 10 µM: 100%
MCF7 [7]
  Activity: Active
PC-3
  growth at 10 µM: 80.5%
LA-N-5 [8]
  Activity: Active
NCI-H292
  Activity: Active
SR
  growth at 10 µM: 91.7%
LA-N-5 [9]
  Activity: Active
